{"source": "patent US20240210412A1", "about": "“SULFONYL-TRIAZOLE COMPOUNDS USEFUL AS LIGANDS AND INHIBITORS OF PROSTAGLANDIN REDUCTASE 2” (University of Virginia Patent Foundation, priority 2021, published 2024)", "experiment_in_all_cases": "SILAC LC-MS ABPP", "type_in_all_cases": "cell-based", "conditions_in_all_cases": "25 μM 2 h, live DM93 cells", "key": {"Q8N6H7": {"target": "T1, Q8N6H7 (Homo sapiens, UniProt Q8N6H7)", "T1 construct": "endogenous in cells; host or cells: DM93 cells (SILAC), live-cell treatment", "in_short": "(§1)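 Competitive activity-based profiling in isotopically labelled DM93 melanoma cells. Heavy cells received 25 μM sulfonyl-triazole ligand and light cells vehicle, each for 2 h at 37 °C, before 2 h with 100 μM HHS-475. Labelled soluble proteins were tagged via CuAAC, combined, digested and enriched before LC-MS/MS.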"}, "P48147": {"target": "T2, P48147 (Homo sapiens, UniProt P48147)", "T2 construct": "endogenous in cells; host or cells: DM93 cells (SILAC)", "in_short": "as §1"}, "P18206": {"target": "T3, P18206 (Homo sapiens, UniProt P18206)", "T3 construct": "Probe-modified proteins from the soluble fraction were conjugated to a desthiobiotin-azide tag; endogenous in cells; host or cells: DM93 (SILAC)", "T3 sequence (P18206 1-1066 isoform P18206-2)": "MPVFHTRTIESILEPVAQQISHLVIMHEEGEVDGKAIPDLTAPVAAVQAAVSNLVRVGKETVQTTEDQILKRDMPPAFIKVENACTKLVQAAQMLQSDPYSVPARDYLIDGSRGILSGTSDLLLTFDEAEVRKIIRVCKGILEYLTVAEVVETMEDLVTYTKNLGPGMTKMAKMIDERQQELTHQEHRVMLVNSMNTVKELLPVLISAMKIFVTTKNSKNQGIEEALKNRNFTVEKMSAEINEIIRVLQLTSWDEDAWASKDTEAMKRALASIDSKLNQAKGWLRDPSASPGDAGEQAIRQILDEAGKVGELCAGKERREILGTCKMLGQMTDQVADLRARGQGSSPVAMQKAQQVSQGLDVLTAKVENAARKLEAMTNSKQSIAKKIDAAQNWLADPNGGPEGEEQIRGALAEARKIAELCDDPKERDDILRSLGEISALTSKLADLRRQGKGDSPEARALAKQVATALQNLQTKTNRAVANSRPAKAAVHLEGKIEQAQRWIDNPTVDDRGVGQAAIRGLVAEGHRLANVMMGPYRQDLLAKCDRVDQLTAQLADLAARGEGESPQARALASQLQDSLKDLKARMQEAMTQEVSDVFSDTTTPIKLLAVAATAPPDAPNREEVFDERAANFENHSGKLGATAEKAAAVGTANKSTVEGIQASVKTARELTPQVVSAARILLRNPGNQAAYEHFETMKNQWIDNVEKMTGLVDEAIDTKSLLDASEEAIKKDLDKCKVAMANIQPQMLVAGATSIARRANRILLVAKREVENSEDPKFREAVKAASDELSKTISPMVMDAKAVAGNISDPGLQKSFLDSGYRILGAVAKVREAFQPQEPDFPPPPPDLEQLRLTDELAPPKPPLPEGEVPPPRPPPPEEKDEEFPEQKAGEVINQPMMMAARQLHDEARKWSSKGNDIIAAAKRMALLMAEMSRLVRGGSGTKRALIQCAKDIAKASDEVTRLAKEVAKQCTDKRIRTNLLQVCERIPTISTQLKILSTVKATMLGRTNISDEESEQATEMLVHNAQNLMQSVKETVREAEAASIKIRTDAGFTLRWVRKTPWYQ", "in_short": "as §1"}, "O60506": {"target": "T4, O60506 (Homo sapiens, UniProt O60506)", "T4 construct": "endogenous in cells; host or cells: DM93", "T4 sequence (O60506 whole entry)": "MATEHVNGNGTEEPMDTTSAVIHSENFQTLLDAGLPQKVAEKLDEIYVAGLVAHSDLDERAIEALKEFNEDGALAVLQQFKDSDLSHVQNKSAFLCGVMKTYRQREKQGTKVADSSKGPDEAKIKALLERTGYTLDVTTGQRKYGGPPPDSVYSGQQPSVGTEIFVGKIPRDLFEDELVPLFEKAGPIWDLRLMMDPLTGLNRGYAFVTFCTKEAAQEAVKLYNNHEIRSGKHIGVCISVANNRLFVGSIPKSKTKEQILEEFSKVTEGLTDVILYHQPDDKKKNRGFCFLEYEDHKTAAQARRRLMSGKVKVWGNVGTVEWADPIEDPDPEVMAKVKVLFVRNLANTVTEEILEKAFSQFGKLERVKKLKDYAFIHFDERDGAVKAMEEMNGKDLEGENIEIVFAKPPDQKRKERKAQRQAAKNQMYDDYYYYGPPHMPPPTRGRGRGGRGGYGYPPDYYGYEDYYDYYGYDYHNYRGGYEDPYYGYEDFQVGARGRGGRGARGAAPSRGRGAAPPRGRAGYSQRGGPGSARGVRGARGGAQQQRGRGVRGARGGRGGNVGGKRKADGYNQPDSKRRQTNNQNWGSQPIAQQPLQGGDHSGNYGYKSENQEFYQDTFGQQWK", "in_short": "as §1"}, "P50502": {"target": "T5, P50502 (Homo sapiens, UniProt P50502)", "T5 construct": "endogenous in cells; host or cells: DM93 cells (SILAC)", "in_short": "as §1"}, "P56945": {"target": "T6, P56945 (Homo sapiens, UniProt P56945)", "T6 construct": "Probe-modified proteins from the soluble fraction were conjugated to a desthiobiotin-azide tag; endogenous in cells; host or cells: DM93 cells (SILAC)", "in_short": "as §1"}, "Q6N069": {"target": "T7, Q6N069 (Homo sapiens, UniProt Q6N069)", "T7 construct": "performing SuTEx compound screening directly in cells; endogenous in cells; host or cells: DM93 cells (SILAC), soluble fraction", "in_short": "as §1"}, "P04040": {"target": "T8, P04040 (Homo sapiens, UniProt P04040)", "T8 construct": "endogenous in cells; host or cells: DM93 cells (SILAC)", "in_short": "as §1"}, "O43172": {"target": "T9, O43172 (Homo sapiens, UniProt O43172)", "T9 construct": "endogenous in cells; host or cells: DM93", "T9 sequence (O43172 whole entry)": "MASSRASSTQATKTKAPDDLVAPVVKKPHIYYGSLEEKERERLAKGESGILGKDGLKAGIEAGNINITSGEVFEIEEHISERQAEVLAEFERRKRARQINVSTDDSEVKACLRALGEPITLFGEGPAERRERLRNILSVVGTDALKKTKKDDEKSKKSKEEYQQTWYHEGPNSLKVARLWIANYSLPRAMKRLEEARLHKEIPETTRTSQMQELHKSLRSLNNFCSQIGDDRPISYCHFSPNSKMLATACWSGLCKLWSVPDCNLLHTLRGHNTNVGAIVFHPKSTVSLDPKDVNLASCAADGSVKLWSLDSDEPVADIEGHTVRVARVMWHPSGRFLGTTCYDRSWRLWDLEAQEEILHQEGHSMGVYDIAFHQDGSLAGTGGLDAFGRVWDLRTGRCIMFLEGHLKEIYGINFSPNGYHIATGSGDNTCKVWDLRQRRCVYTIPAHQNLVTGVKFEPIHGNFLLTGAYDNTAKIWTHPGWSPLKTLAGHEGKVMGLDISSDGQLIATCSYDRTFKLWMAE", "in_short": "as §1"}, "Q96C86": {"target": "T10, Q96C86 (Homo sapiens, UniProt Q96C86)", "T10 construct": "endogenous in cells; host or cells: DM93 cells (SILAC), treated live; soluble proteome analysed", "T10 sequence (Q96C86 whole entry)": "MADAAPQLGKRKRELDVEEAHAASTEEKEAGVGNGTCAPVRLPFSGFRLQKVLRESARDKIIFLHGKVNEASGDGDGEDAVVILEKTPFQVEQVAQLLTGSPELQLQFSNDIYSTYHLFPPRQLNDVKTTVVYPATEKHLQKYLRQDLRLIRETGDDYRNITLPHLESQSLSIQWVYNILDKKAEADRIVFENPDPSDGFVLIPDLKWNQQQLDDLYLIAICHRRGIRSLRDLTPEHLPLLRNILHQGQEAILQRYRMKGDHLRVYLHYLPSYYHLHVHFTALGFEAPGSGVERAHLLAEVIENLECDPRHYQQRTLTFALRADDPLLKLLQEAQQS", "in_short": "as §1"}, "P49792": {"target": "T11, P49792 (Homo sapiens, UniProt P49792)", "T11 construct": "endogenous in cells; host or cells: DM93 cells (SILAC)", "in_short": "as §1"}, "Q9UQ35": {"target": "T12, Q9UQ35 (Homo sapiens, UniProt Q9UQ35)", "T12 construct": "endogenous in cells; host or cells: DM93 cells (SILAC)", "in_short": "as §1"}, "Q9BUJ2": {"target": "T13, Q9BUJ2 (Homo sapiens, UniProt Q9BUJ2)", "T13 construct": "endogenous in cells; host or cells: DM93 cells (SILAC), treated live; soluble proteome analysed", "in_short": "as §1"}, "P25685": {"target": "T14, P25685 (Homo sapiens, UniProt P25685)", "T14 construct": "endogenous in cells; host or cells: DM93 (SILAC)", "T14 sequence (P25685 whole entry)": "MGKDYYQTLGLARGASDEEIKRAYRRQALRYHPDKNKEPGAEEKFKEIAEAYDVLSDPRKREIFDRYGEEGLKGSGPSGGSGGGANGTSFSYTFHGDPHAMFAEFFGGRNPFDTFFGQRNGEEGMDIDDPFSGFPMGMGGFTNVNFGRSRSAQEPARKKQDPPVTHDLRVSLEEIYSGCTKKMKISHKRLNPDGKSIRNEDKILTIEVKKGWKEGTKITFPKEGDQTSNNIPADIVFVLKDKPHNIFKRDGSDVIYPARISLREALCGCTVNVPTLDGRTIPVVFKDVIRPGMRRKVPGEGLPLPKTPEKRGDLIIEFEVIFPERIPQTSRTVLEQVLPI", "in_short": "as §1"}, "P62979": {"target": "T15, P62979 (Homo sapiens, UniProt P62979)", "T15 construct": "performing SuTEx compound screening directly in cells; endogenous in cells; host or cells: DM93 cells (SILAC)", "in_short": "as §1"}, "Q14980": {"target": "T16, Q14980 (Homo sapiens, UniProt Q14980)", "T16 construct": "performing SuTEx compound screening directly in cells; endogenous in cells; host or cells: DM93 cells (SILAC), soluble fraction", "T16 sequence (Q14980 whole entry)": "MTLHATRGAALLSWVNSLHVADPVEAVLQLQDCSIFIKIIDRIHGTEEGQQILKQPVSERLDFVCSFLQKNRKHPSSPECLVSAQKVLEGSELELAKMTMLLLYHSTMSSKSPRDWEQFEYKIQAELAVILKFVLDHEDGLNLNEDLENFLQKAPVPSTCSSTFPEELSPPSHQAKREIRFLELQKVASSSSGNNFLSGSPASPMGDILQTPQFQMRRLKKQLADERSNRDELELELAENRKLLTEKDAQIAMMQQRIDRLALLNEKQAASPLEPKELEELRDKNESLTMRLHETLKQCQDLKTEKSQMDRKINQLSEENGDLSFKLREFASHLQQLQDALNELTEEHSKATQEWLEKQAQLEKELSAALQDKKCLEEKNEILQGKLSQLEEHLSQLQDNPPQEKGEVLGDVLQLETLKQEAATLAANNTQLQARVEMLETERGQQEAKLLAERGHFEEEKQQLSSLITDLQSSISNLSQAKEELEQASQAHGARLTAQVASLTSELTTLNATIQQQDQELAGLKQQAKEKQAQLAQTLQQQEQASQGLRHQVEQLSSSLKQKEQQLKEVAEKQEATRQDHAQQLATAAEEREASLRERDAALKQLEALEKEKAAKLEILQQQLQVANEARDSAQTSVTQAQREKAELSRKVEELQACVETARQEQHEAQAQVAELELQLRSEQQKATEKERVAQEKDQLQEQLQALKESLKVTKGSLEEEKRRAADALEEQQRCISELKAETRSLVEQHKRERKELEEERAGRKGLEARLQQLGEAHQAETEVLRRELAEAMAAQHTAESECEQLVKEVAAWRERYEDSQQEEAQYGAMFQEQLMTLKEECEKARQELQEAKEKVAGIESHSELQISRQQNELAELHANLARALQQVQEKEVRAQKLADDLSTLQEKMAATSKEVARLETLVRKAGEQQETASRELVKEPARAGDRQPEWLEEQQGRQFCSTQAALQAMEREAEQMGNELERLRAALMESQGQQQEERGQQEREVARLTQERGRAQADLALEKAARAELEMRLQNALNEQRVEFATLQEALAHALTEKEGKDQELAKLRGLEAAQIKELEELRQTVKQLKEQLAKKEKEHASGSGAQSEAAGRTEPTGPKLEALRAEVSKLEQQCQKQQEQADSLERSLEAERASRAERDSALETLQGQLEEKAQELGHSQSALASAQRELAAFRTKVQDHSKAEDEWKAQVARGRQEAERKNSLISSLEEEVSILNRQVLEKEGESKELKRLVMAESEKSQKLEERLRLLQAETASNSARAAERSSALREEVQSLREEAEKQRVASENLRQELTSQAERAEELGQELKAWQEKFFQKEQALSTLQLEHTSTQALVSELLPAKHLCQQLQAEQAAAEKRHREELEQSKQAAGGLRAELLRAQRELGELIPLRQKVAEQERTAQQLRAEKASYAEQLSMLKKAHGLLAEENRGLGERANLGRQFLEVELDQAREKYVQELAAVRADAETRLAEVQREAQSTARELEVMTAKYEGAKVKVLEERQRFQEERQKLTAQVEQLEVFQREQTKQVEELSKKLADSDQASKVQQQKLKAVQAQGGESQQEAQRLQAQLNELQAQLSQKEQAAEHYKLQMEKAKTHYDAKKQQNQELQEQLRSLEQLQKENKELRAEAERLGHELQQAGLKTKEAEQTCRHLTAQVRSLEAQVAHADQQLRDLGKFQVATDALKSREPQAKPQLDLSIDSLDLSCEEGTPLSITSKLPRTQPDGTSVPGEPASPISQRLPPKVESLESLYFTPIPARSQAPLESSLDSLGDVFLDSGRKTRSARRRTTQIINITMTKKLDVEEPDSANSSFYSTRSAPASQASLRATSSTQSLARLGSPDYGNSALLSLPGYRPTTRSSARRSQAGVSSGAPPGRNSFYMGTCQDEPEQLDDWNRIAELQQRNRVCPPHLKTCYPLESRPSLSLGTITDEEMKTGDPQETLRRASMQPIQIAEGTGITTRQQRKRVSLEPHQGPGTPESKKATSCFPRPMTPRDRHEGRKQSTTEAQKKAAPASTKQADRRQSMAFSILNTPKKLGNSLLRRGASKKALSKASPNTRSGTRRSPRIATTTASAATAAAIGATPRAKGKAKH", "in_short": "as §1"}, "P50851": {"target": "T17, P50851 (Homo sapiens, UniProt P50851)", "T17 construct": "Probe-modified proteins from the soluble fraction were conjugated to a desthiobiotin-azide tag; endogenous in cells; host or cells: DM93 cells (SILAC)", "in_short": "as §1"}}}
{"smiles": "O=C(c1ccc(S(=O)(=O)n2cncn2)cc1)N1CCC(c2ccccc2)CC1", "note": "[HHS-0701, (4-((1H-1,2,4-triazol-1-yl)sulfonyl)phenyl)(4-phenylpiperidin-1-yl)methanone]", "values": [{"measurement": "liganded tyrosine site 445", "setting": "Q8N6H7", "result": "HHS0701.Y (tyrosine sites that showed >80% reductions (SR >5) in probe labeling in cells treated with compounds (liganded sites))"}]}
{"smiles": "O=C(NCC1CC1)c1ccc(S(=O)(=O)n2cncn2)cc1", "note": "[HHS-0201, 4-((1H-1,2,4-triazol-1-yl)sulfonyl)-N-(cyclopropylmethyl)benzamide]", "values": [{"measurement": "liganded tyrosine site 473", "setting": "P48147", "result": "HHS0201.Y (tyrosine sites that showed >80% reductions (SR >5) in probe labeling in cells treated with compounds (liganded sites))"}, {"measurement": "liganded tyrosine site 100", "setting": "P18206", "result": "HHS0201.Y|HHS0301.Y (tyrosine sites that showed >80% reductions (SR >5) in probe labeling in cells treated with compounds (liganded sites))"}, {"measurement": "liganded tyrosine site 570", "setting": "O60506", "result": "HHS0201.Y|HHS0301.Y|HHS0401.Y|HHS0701.Y (tyrosine sites that showed >80% reductions (SR >5) in probe labeling in cells treated with compounds (liganded sites))"}, {"measurement": "liganded tyrosine site 213", "setting": "P50502", "result": "HHS0201.Y (tyrosine sites that showed >80% reductions (SR >5) in probe labeling in cells treated with compounds (liganded sites))"}, {"measurement": "liganded tyrosine site 267", "setting": "P56945", "result": "HHS0201.Y (tyrosine sites that showed >80% reductions (SR >5) in probe labeling in cells treated with compounds (liganded sites))"}]}
{"smiles": "O=C(NC1CC1)c1ccc(S(=O)(=O)n2cncn2)cc1", "note": "[HHS-0101, 4-((1H-1,2,4-triazol-1-yl)sulfonyl)-N-cyclopropylbenzamide]", "values": [{"measurement": "liganded tyrosine site 86", "setting": "Q6N069", "result": "HHS0101.Y|HHS0701.Y (tyrosine sites that showed >80% reductions (SR >5) in probe labeling in cells treated with compounds (liganded sites))"}, {"measurement": "liganded tyrosine site 358", "setting": "P04040", "result": "HHS0101.Y|HHS0201.Y|HHS0301.Y|HHS0701.Y (tyrosine sites that showed >80% reductions (SR >5) in probe labeling in cells treated with compounds (liganded sites))"}, {"measurement": "liganded tyrosine site 31", "setting": "O43172", "result": "HHS0101.Y|HHS0301.Y (tyrosine sites that showed >80% reductions (SR >5) in probe labeling in cells treated with compounds (liganded sites))"}, {"measurement": "liganded tyrosine site 32", "setting": "O43172", "result": "HHS0101.Y|HHS0301.Y (tyrosine sites that showed >80% reductions (SR >5) in probe labeling in cells treated with compounds (liganded sites))"}, {"measurement": "liganded tyrosine site 116", "setting": "Q96C86", "result": "HHS0101.Y|HHS0401.Y (tyrosine sites that showed >80% reductions (SR >5) in probe labeling in cells treated with compounds (liganded sites))"}, {"measurement": "liganded tyrosine site 1983", "setting": "P49792", "result": "HHS0101.Y (tyrosine sites that showed >80% reductions (SR >5) in probe labeling in cells treated with compounds (liganded sites))"}]}
{"smiles": "O=C(NC1CCCCC1)c1ccc(S(=O)(=O)n2cncn2)cc1", "note": "[HHS-0301, 4-((1H-1,2,4-triazol-1-yl)sulfonyl)-N-cyclohexylbenzamide]", "values": [{"measurement": "liganded tyrosine site 2390", "setting": "Q9UQ35", "result": "HHS0301.Y (tyrosine sites that showed >80% reductions (SR >5) in probe labeling in cells treated with compounds (liganded sites))"}, {"measurement": "liganded tyrosine site 111", "setting": "Q9BUJ2", "result": "HHS0301.Y|HHS0701.Y (tyrosine sites that showed >80% reductions (SR >5) in probe labeling in cells treated with compounds (liganded sites))"}, {"measurement": "liganded tyrosine site 52", "setting": "P25685", "result": "HHS0301.Y (tyrosine sites that showed >80% reductions (SR >5) in probe labeling in cells treated with compounds (liganded sites))"}]}
{"smiles": "O=C(NCc1ccccc1)c1ccc(S(=O)(=O)n2cncn2)cc1", "note": "[HHS-0401, 4-((1H-1,2,4-triazol-1-yl)sulfonyl)-N-benzylbenzamide]", "values": [{"measurement": "liganded tyrosine site 148", "setting": "P62979", "result": "HHS0401.Y (tyrosine sites that showed >80% reductions (SR >5) in probe labeling in cells treated with compounds (liganded sites))"}, {"measurement": "liganded tyrosine site 1836", "setting": "Q14980", "result": "HHS0401.Y (tyrosine sites that showed >80% reductions (SR >5) in probe labeling in cells treated with compounds (liganded sites))"}, {"measurement": "liganded tyrosine site 2656", "setting": "P50851", "result": "HHS0401.Y (tyrosine sites that showed >80% reductions (SR >5) in probe labeling in cells treated with compounds (liganded sites))"}]}
